Values of other authors as cited in patent US9700574B2, “Use of secnidazole in treatment of dental infections” (ATHENA PHARMACEUTIQUES SAS, priority 2011, dated 2017).

Tests used:
[1] = in vivo
tested microorganisms = conditions: in vitro; oro-dental gel for the periodontal pocket; Drug Development and Industrial Pharmacy 34:1356-1367, 2008

| SMILES | half-life [1] | minimal inhibition concentration for the tested microorganisms (tested microorganisms) |
| --- | --- | --- |
| CC[C@H]1OC(=O)[C@H](C)[C@@H](O[C@H]2C[C@@](C)(OC)[C@@H](O)[C@H](C)O2)[C@H](C)[C@@H](O[C@@H]2O[C@H](C)C[C@H](N(C)C)[C@H]2O)[C@](C)(O)C[C@@H](C)CN(C)[C@H](C)[C@@H](O)[C@]1(C)O [azithromycine] | about 20 hours |  |
| Cc1ncc([N+](=O)[O-])n1CC(C)O (stereo not drawn) [secnidazole, alpha-2-dimethyl-5-nitro-1H-imidazole-1-ethanol] | about 25 hours | 0.125-5 μg of secnidazole per ml of gel |
